The results in this text go back to patent US8785483B2, “Methods for treating COPD” (The Board of Regents of the University of Texas System, priority 2010, dated 2014).

Assay [1] relates to SAEC. Put plainly: Cytokines, chemokines and growth factors by Milliplex in SAEC culture media after CSE. Type of assay: cell-based, human. Conditions: 24 h after CSE (50%). Here is the method: FIG. 2. CSE-induced changes in cytokine levels in SAEC prevented by aldose reductase (AR) inhibition. *p<0.01 Vs Control; **p<0.05 Vs CSE 50%; #p<0.001 Vs Control; ##p<0.01 Vs CSE 50% Primary human Small Airway Epithelial Cells (SAEC) obtained from Lonza (Walkersville, Md.) were normal human SAEC harvested from distal airspace of donor. The cells were cultured according to the supplier's instructions at 37° C. in humidified atmosphere containing 95% air and 5% CO2 in small airway epithelial basal medium (SABM) with supplements containing 52 μg/ml bovine pituitary extract, 0.5 ng/ml human recombinant epidermal growth factor (EGF), 0.5 μg/ml epinephrine, 1 μg/ml hydrocortisone, 10 μg/ml transferrin, 5 μg/ml insulin, 0.1 ng/ml retinoic acid (RA), 6.5 ng/ml triiodothyronine, 50 μg/ml Gentamicin/Amphotericin-B (GA-1000), and 50 μg/ml fatty acid-free bovine serum albumin (BSA). Research-grade cigarettes (1R3F) with a filter from the Kentucky Tobacco Research and Development Center at the University of Kentucky (Lexington, Ky.) were smoked to 0.5 cm above the filter in a fume hood, using a modification of the method developed by Carp and Janoff (Am Rev Respir Dis. 1978; 118(3):617-621). […] The levels of cytokines and chemokines in the supernatant were determined by Milliplex MAP kits according to the manufacturer's instructions (Millipore Corporation, Bellerica, Mass.)).

Assay [2] concerns SAEC. Put plainly: IL-13-induced ROS levels (H2DCF-DA fluorescence). Particulars: fidarestat 10 μM overnight, IL-13 25 ng/ml 1 h. Format: cell-based, human. As to the method:
FIGS. 3A-3B. Inhibition of AR prevents IL-13-induced reactive oxygen species (ROS) production in SAEC. (A) Approximately 5×10^4 cells were seeded on 2-chambered slides and starved in serum-free basal medium without or with fidarestat overnight. The cells were washed with 1×HBSS and incubated with 10 μM H2DCF-DA at 37° C. for 30 min, washed again and treated with IL-13 (25 ng/ml) for 1 h. The cells were washed with cold 1×HBSS twice and mounted using floursave mounting medium with DAPI. Photomicrographs were acquired using a fluorescence microscope (Nikon). A representative image is shown (n=4); Magnification 400×. (B) Approximately 10,000 SAEC were plated per well in a 96-well plate and serum-starved for 24 h without or with fidarestat. […] At the end of the treatment, cells were washed twice with HBSS and fluorescence was determined at 485 nm excitation and 538 nm emission wavelengths. Relative ROS production is expressed as mean fluorescence intensity (MFI) (arbitrary units). […] The cells on the culture slide were mounted using floursave mounting medium with DAPI after which photomicrographs were acquired using a fluorescence microscope (Nikon). Fluorescence was determined using 485 nm excitation and 538 nm emission wavelengths for cells in 96-well plate and relative ROS production is expressed as mean fluorescence intensity (MFI) (arbitrary units).

For the compound `NC(=O)[C@@H]1C[C@]2(NC(=O)NC2=O)c2cc(F)ccc2O1` [fidarestat, (2S,4S)-2-aminoformyl-6-fluoro-spiro[chroman-4,4′-imidazolidine]-2′,5′-dione], in the assay with SAEC [1], the “prevention of CSE-induced increase in chemokines (G-CSF, MCP-1, GM-CSF, IP-10) and growth factors (TGF-α, VEGF)” value is “more than 50%”; the “prevention of CSE-induced increase in cytokines (IL-1a, IL-8, TNF-α)” value is “significantly (p<0.05 and 0.01) prevented”. The “prevention of IL-13-induced increase in ROS levels” value in the assay on SAEC [2] is given as 80%.
